Tests used:
Type in all cases: in vivo
Settings in all cases: evaluated after 13 days
[1] = system: Echinochloa crus-galli (ECHCG); assay: Post-emergence herbicidal activity, Echinochloa crus-galli; parameters: key: 5=total damage to plant; 0=no damage to plant
Method in brief: (§1)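 Scoring runs 0 (no damage) to 5 (total damage), assessed 13 days after treatment. Seedlings 8 days post-sowing received an aqueous spray from acetone/water 50:50 with 0.5% Tween 20, then were kept at 24/16 °C, 14 h light, 65% humidity and watered twice daily.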

Avena fatua (AVEFA) [2] = assay: Post-emergence herbicidal activity, Avena fatua
Method in brief: as §1

Avena fatua (AVEFA) [3] = assay: Pre-emergence herbicidal activity, Avena fatua; parameters: key: 5=total damage to plant; 0=no damage to plant
Method in brief: (§2)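 Visual injury score, 0–5, taken 13 days after a pre-emergence spray applied one day post-sowing; spray vehicle acetone/water (50:50) with 0.5% Tween 20.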

[4] = system: Alopecurus myosuroides (ALOMY); assay: Post-emergence herbicidal activity, Alopecurus myosuroides; parameters: key: 5=total damage to plant; 0=no damage to plant
Method in brief: as §1

Lolium perenne (LOLPE) [5] = assay: Post-emergence herbicidal activity, Lolium perenne
Method in brief: as §1

[6] = system: Echinochloa crus-galli (ECHCG); assay: Pre-emergence herbicidal activity, Echinochloa crus-galli
Method in brief: as §2

[7] = system: Alopecurus myosuroides (ALOMY); assay: Pre-emergence herbicidal activity, Alopecurus myosuroides; parameters: key: 5=total damage to plant; 0=no damage to plant
Method in brief: as §2

Setaria faberi (SETFA) [8] = assay: Post-emergence herbicidal activity, Setaria faberi; parameters: key: 5=total damage to plant; 0=no damage to plant
Method in brief: as §1

Setaria faberi (SETFA) [9] = assay: Pre-emergence herbicidal activity, Setaria faberi; parameters: key: 5=total damage to plant; 0=no damage to plant
Method in brief: as §2

Lolium perenne (LOLPE) [10] = assay: Pre-emergence herbicidal activity, Lolium perenne; parameters: key: 5=total damage to plant; 0=no damage to plant
Method in brief: as §2

[11] = system: Triticum aestivium (TRZAW); assay: Pre-emergence herbicidal activity, Triticum aestivium; parameters: key: 5=total damage to plant; 0=no damage to plant
Method in brief: as §2

[12] = system: Triticum aestivium (TRZAW); assay: Post-emergence herbicidal activity, Triticum aestivium; parameters: key: 5=total damage to plant; 0=no damage to plant
Method in brief: as §1

Structure (SMILES) | Control of ECHCG after post-emergence application (score 0-5) ([1]; 250 g/ha) | Control of AVEFA after post-emergence application (score 0-5) (Avena fatua (AVEFA) [2]; 250 g/ha) | Control of AVEFA after pre-emergence application (score 0-5) (Avena fatua (AVEFA) [3]; 250 g/ha) | Control of ALOMY after post-emergence application (score 0-5) ([4]; 250 g/ha) | Control of LOLPE after post-emergence application (score 0-5) (Lolium perenne (LOLPE) [5]; 250 g/ha) | Control of ECHCG after pre-emergence application (score 0-5) ([6]; 250 g/ha) | Control of ALOMY after pre-emergence application (score 0-5) ([7]; 250 g/ha) | Control of SETFA after post-emergence application (score 0-5) (Setaria faberi (SETFA) [8]; 250 g/ha) | Control of SETFA after pre-emergence application (score 0-5) (Setaria faberi (SETFA) [9]; 250 g/ha) | Control of LOLPE after pre-emergence application (score 0-5) (Lolium perenne (LOLPE) [10]; 250 g/ha) | Control of TRAZW after pre-emergence application (score 0-5) ([11]; 250 g/ha) | Control of TRAZW after post-emergence application (score 0-5) ([12]; 250 g/ha) | further results
CC(C)(C)COC(=O)Nc1ccc(-c2cncc(F)c2)nc1C(F)(F)F [Compound B91] | 2 | 2 | 1 | 0 | 1 | 2 | 0 | 5 | 5 | 1 | 1 | 0 | –
Cc1cnc(CNC(=O)Nc2ccc(-c3cncc(F)c3)nc2C(F)(F)F)cn1 [Compound B92] | 3 | 3 | 1 | 0 | 1 | 1 | 0 | 4 | 5 | 0 | 0 | 0 | –
O=C(Nc1ccc(-c2cncc(F)c2)nc1C(F)(F)F)OC1CCOCC1 [Compound B93] | 5 | 4 | 2 | 0 | 3 | 4 | 0 | 5 | 5 | 1 | 0 | 0 | –
O=C(Nc1ccc(-c2cncc(F)c2)nc1C(F)(F)F)OCC1CC1 [Compound B94] | – | – | – | – | – | – | – | – | – | – | – | – | Control of ECHCG after post-emergence application (score 0-5) ([1]; 1000 g/ha): 5; Control of AVEFA after post-emergence application (score 0-5) (Avena fatua (AVEFA) [2]; 1000 g/ha): 3; Control of AVEFA after pre-emergence application (score 0-5) (Avena fatua (AVEFA) [3]; 1000 g/ha): 3; Control of ALOMY after post-emergence application (score 0-5) ([4]; 1000 g/ha): 0; Control of LOLPE after post-emergence application (score 0-5) (Lolium perenne (LOLPE) [5]; 1000 g/ha): 3; Control of ECHCG after pre-emergence application (score 0-5) ([6]; 1000 g/ha): 4; Control of ALOMY after pre-emergence application (score 0-5) ([7]; 1000 g/ha): 1; Control of SETFA after post-emergence application (score 0-5) (Setaria faberi (SETFA) [8]; 1000 g/ha): 5; Control of SETFA after pre-emergence application (score 0-5) (Setaria faberi (SETFA) [9]; 1000 g/ha): 5; Control of LOLPE after pre-emergence application (score 0-5) (Lolium perenne (LOLPE) [10]; 1000 g/ha): 2; Control of TRAZW after pre-emergence application (score 0-5) ([11]; 1000 g/ha): 0; Control of TRAZW after post-emergence application (score 0-5) ([12]; 1000 g/ha): 0
CCCCN(C)C(=O)Nc1ccc(-c2cncc(F)c2)nc1C(F)(F)F [Compound B95] | 2 | 3 | 0 | 0 | 1 | 1 | 0 | 5 | 4 | 1 | 0 | 0 | –
O=C(Nc1ccc(-c2cncc(F)c2)nc1C(F)(F)F)OCCC(F)(F)F [Compound B96] | 5 | 3 | 1 | 0 | 2 | 4 | 0 | 5 | 5 | 1 | 0 | 0 | –
